Results on one compound are retold here after US8426424B2, “Certain substituted amides, method of making, and method of use thereof” (CGI Pharmaceuticals, Inc., priority 2008, dated 2013).

What is called melting point is the temperature, or range, at which the solid turns liquid. In the case of `Cc1c(NC(=O)c2cc3c(s2)C2CCC3C2)cccc1-c1cn(C)c(=O)c(Nc2ccc(C3C(=O)N(C)CCN3C)cc2)n1` (stereo not shown) [1q, N-(3-(6-(4-(1,4-Dimethyl-3-oxopiperazin-2-yl)phenylamino)-4-methyl-5-oxo-4,5-dihydropyrazin-2-yl)-2-methylphenyl)-4,5,6,7-tetrahydro-4,7-methanobenzo[b]thiophene-2-carboxamide], the melting point lay within 178 to 179 °C.
